# Literature values as cited in US20260285945A1, “OMOMYC AND KRAS INHIBITORS COMBINATION THERAPY FOR THE TREATMENT OF CANCER” (PEPTOMYC, S.L., priority 2023, published 2026).
# Tested on: cancer cell proliferation
# Conditions: single agent; background of the invention
compound,measurement,value
CNCc1ccccc1-c1csc([C@@H](C)Nc2nc(C)nc3cc(OC)c(OC)cc23)c1 [BAY-293],"Inhibition of cancer cell proliferation, potency",weak potency
